Results published in patent publication US9113629B2, “4-amino-6-(4-substituted-phenyl)-picolinates and 6-amino-2-(4-substituted-phenyl)-pyrimidine-4-carboxylates and their use as herbicides” (DOW AGROSCIENCES LLC, priority 2013, dated 2015).
Where two headings read alike, the source gives them in different places.

Key:
[1] = tested on: Key Grass and Sedge Weeds as well as Grass Crops; assay: Post-emergent Test II herbicidal activity (Table 6); assay type: in vivo; settings: post-emergence, 336 h; for pest or weed control at 70 g/ha: application rate 70 g ai/ha; for pest or weed control at 140 g/ha: application rate 140 g ai/ha
Method in brief: (§1)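 Greenhouse-grown plants at first or second true leaf stage were sprayed post-emergence with compound in acetone/DMSO-based aqueous spray containing crop oil concentrate and surfactant, at 187 L/ha, highest rate plus ½× to 1/16× dilutions. After 14 d, injury was scored visually versus untreated plants, 0 (none) to 100% (complete kill).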

[2] = tested on: Key Broadleaf Weed and Crop Species; assay: Post-emergent Test II herbicidal activity (Table 5); assay type: in vivo; settings: post-emergence, 336 h, post-emergent, 14 days after application; for pest or weed control at 70 g/ha: 70 g ai/ha
Method in brief: as §1

[3] = CYPES: yellow nutsedge (Cyperus esculentus), read-out: Visual Growth Reduction (%) 14 Days After Application, CYPES
[4] = DIGSA: crabgrass (Digitaria sanguinalis), read-out: Visual Growth Reduction (%) 14 Days After Application, DIGSA
[5] = ECHCG: barnyardgrass (Echinochloa crus-galli), read-out: Visual Growth Reduction (%) 14 Days After Application, ECHCG
[6] = ORYSA: rice (Oryza sativa), read-out: Visual Growth Reduction (%) 14 Days After Application, ORYSA
[7] = SETFA: giant foxtail (Setaria faberi), read-out: Visual Growth Reduction (%) 14 Days After Application, SETFA
[8] = SORVU: grain sorghum (Sorghum vulgare), read-out: Visual Growth Reduction (%) 14 Days After Application, SORVU
[9] = TRZSS (wheat, Triticum aestivum), read-out: Visual Growth Reduction (%) 14 Days After Application, TRZSS
[10] = ZEAMX: maize, corn (Zea mays), read-out: Visual Growth Reduction (%) 14 Days After Application, ZEAMX
[11] = ABUTH: velvetleaf (Abutilon theophrasti), read-out: Visual Growth Reduction (%) 14 Days After Application ABUTH
[12] = AMARE: redroot pigweed (Amaranthus retroflexus), read-out: Visual Growth Reduction (%) 14 Days After Application AMARE
[13] = BRSNN: oilseed-rape, canola (Brassica napus), read-out: Visual Growth Reduction (%) 14 Days After Application BRSNN
[14] = CHEAL: lambsquarters (Chenopodium album), read-out: Visual Growth Reduction (%) 14 Days After Application CHEAL
[15] = EPHHL: wild poinsettia (Euphorbia heterophylla), read-out: Visual Growth Reduction (%) 14 Days After Application EPHHL
[16] = HELAN: sunflower (Helianthus annuus), read-out: Visual Growth Reduction (%) 14 Days After Application HELAN
[17] = VIOTR: wild pansy (Viola tricolor), read-out: Visual Growth Reduction (%) 14 Days After Application VIOTR

melting point [°C] | SMILES | pest or weed control at 70 g/ha [1, 3] [%] | pest or weed control at 140 g/ha [1, 3] [%] | pest or weed control at 70 g/ha [1, 4] [%] | pest or weed control at 140 g/ha [1, 4] [%] | pest or weed control at 70 g/ha [1, 5] [%] | pest or weed control at 140 g/ha [1, 5] [%] | pest or weed control at 70 g/ha [1, 6] [%] | pest or weed control at 140 g/ha [1, 6] [%] | pest or weed control at 70 g/ha [1, 7] [%] | pest or weed control at 140 g/ha [1, 7] [%] | pest or weed control at 70 g/ha [1, 8] [%] | pest or weed control at 140 g/ha [1, 8] [%] | pest or weed control at 70 g/ha [1, 9] [%] | pest or weed control at 140 g/ha [1, 9] [%] | pest or weed control at 70 g/ha [1, 10] [%] | pest or weed control at 140 g/ha [1, 10] [%] | pest or weed control at 70 g/ha [2, 11] [%] | pest or weed control at 70 g/ha [2, 12] [%] | pest or weed control at 70 g/ha [2, 13] [%] | further results
124 to 126 | COC(=O)c1nc(-c2cc(F)c(C(F)(F)F)cc2F)c(F)c(N)c1Cl [Compound 144] | 85 to 94 | 95 to 100 | 60 to 74 | 75 to 84 | 45 to 59 | 75 to 84 | 0 to 29 | 0 to 29 | 60 to 74 | 75 to 84 | 75 to 84 | 85 to 94 | 60 to 74 | 75 to 84 | 60 to 74 | 75 to 84 | 85 to 94 | 95 to 100 | 85 to 94 | pest or weed control at 140 g/ha ([2]; ABUTH: velvetleaf (Abutilon theophrasti), 140 g ai/ha, read-out: Visual Growth Reduction (%) 14 Days After Application ABUTH): 95 to 100%; pest or weed control at 140 g/ha ([2]; AMARE: redroot pigweed (Amaranthus retroflexus), 140 g ai/ha, read-out: Visual Growth Reduction (%) 14 Days After Application AMARE): 95 to 100%; pest or weed control at 140 g/ha ([2]; BRSNN: oilseed-rape, canola (Brassica napus), 140 g ai/ha, read-out: Visual Growth Reduction (%) 14 Days After Application BRSNN): 95 to 100%; pest or weed control at 70 g/ha [2, 14]: 85 to 94%; pest or weed control at 140 g/ha ([2]; CHEAL: lambsquarters (Chenopodium album), 140 g ai/ha, read-out: Visual Growth Reduction (%) 14 Days After Application CHEAL): 95 to 100%; pest or weed control at 70 g/ha [2, 15]: 75 to 84%; pest or weed control at 140 g/ha ([2]; EPHHL: wild poinsettia (Euphorbia heterophylla), 140 g ai/ha, read-out: Visual Growth Reduction (%) 14 Days After Application EPHHL): 85 to 94%; pest or weed control at 70 g/ha [2, 16]: 85 to 94%; pest or weed control at 140 g/ha ([2]; HELAN: sunflower (Helianthus annuus), 140 g ai/ha, read-out: Visual Growth Reduction (%) 14 Days After Application HELAN): 95 to 100%; pest or weed control at 70 g/ha [2, 17]: 75 to 84%; pest or weed control at 140 g/ha ([2]; VIOTR: wild pansy (Viola tricolor), 140 g ai/ha, read-out: Visual Growth Reduction (%) 14 Days After Application VIOTR): 85 to 94%
137.2 to 138.8 | COC(=O)c1nc(-c2cc(F)c(C)cc2F)cc(N)c1Cl [Compound 179] | 0 to 29 | 0 to 29 | 0 to 29 | 0 to 29 | 0 to 29 | 30 to 44 | 0 to 29 | 0 to 29 | 0 to 29 | 0 to 29 | 0 to 29 | 45 to 59 | 0 to 29 | 0 to 29 | 0 to 29 | 0 to 29 | 95 to 100 | 95 to 100 | 30 to 44 | pest or weed control at 140 g/ha ([2]; ABUTH: velvetleaf (Abutilon theophrasti), application rate 140 g ai/ha, read-out: Visual Growth Reduction (%) 14 Days After Application, ABUTH): 95 to 100%; pest or weed control at 140 g/ha ([2]; AMARE: redroot pigweed (Amaranthus retroflexus), application rate 140 g ai/ha, read-out: Visual Growth Reduction (%) 14 Days After Application, AMARE): 95 to 100%; pest or weed control at 140 g/ha ([2]; BRSNN: oilseed-rape, canola (Brassica napus), application rate 140 g ai/ha, read-out: Visual Growth Reduction (%) 14 Days After Application, BRSNN): 45 to 59%; pest or weed control at 70 g/ha [2, 14]: 95 to 100%; pest or weed control at 140 g/ha ([2]; CHEAL: lambsquarters (Chenopodium album), application rate 140 g ai/ha, read-out: Visual Growth Reduction (%) 14 Days After Application, CHEAL): 95 to 100%; pest or weed control at 70 g/ha [2, 15]: 95 to 100%; pest or weed control at 140 g/ha ([2]; EPHHL: wild poinsettia (Euphorbia heterophylla), application rate 140 g ai/ha, read-out: Visual Growth Reduction (%) 14 Days After Application, EPHHL): 95 to 100%; pest or weed control at 70 g/ha [2, 16]: 85 to 94%; pest or weed control at 140 g/ha ([2]; HELAN: sunflower (Helianthus annuus), application rate 140 g ai/ha, read-out: Visual Growth Reduction (%) 14 Days After Application, HELAN): 85 to 94%; pest or weed control at 70 g/ha [2, 17]: 0 to 29%; pest or weed control at 140 g/ha ([2]; VIOTR: wild pansy (Viola tricolor), application rate 140 g ai/ha, read-out: Visual Growth Reduction (%) 14 Days After Application, VIOTR): 0 to 29%
